Measurements: patent US20220024900A1, “Compounds and Their Use for Reducing Uric Acid Levels” (Acquist LLC, priority 2016, published 2022)

Molecular target: xanthine oxidase (Homo sapiens, UniProt P47989)
Assay: Fluorescence-based xanthine oxidase activity assay
Assay type: biochemical
Details: verbal rating

Sequence of xanthine oxidase (P47989 whole entry, species assumed): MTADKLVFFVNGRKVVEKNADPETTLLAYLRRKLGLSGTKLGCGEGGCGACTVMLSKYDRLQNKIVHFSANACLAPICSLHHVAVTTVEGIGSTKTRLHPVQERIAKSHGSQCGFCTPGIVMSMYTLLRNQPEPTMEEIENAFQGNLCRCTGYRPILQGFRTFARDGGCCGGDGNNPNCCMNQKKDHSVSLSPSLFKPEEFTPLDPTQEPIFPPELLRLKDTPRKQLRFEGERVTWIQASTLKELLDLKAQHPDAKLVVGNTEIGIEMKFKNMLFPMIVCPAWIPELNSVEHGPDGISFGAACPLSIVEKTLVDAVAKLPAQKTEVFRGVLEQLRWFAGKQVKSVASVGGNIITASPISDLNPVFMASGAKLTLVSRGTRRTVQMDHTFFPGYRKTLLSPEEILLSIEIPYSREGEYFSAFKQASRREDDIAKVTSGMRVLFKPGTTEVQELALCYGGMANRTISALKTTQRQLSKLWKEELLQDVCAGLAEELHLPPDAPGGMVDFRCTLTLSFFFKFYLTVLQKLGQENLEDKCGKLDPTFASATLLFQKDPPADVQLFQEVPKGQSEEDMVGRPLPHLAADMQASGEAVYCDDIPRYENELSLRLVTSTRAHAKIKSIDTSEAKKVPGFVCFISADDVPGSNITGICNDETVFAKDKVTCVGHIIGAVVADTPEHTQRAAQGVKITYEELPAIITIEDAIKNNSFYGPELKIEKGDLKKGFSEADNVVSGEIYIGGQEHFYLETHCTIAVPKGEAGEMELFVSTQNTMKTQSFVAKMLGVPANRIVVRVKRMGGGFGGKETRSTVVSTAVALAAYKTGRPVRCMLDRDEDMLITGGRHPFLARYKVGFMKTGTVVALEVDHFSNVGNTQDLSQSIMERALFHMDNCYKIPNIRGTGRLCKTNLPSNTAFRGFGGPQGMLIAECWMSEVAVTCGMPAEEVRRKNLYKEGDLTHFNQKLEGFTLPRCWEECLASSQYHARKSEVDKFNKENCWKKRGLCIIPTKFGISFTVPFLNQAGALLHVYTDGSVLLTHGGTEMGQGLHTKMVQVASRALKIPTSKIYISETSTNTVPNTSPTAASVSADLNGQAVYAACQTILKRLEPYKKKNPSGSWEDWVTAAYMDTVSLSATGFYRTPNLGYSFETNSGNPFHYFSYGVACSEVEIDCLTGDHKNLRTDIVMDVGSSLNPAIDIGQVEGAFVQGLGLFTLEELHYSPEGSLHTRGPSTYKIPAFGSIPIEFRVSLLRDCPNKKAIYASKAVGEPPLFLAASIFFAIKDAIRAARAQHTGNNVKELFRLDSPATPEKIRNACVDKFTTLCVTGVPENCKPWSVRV

Compound: COc1nc(O)c(C(=O)Nc2ccc(-c3cnn[nH]3)cc2)c(=O)[nH]1 [Formula (IIb), N-(4-(3H-1,2,3-triazol-4-yl)phenyl)-4-hydroxy-2-methoxy-6-oxo-1,6-dihydropyrimidine-5-carboxamide]
- inhibition of xanthine oxidase compared to allopurinol: particularly potent inhibitors

Compound: CC(C)Sc1nc(O)c(C(=O)Nc2ccc(-c3c[nH]nn3)cc2)c(=O)[nH]1 [Formula (IId), N-(4-(1H-1,2,3-triazol-5-yl)phenyl)-4-hydroxy-2-(isopropylthio)-6-oxo-1,6-dihydropyrimidine-5-carboxamide]
- inhibition of xanthine oxidase compared to allopurinol: particularly potent inhibitors

Compound: N=C(Nc1ccc(-c2cnn[nH]2)cc1)c1c(O)[nH]c(=O)[nH]c1=O [Formula (Ia), N-(4-(1H-1,2,3-triazol-4-yl)phenyl)-6-hydroxy-2,4-dioxo-1,2,3,4-tetrahydropyrimidine-5-carboximidamide]
- inhibition of xanthine oxidase compared to allopurinol: particularly potent inhibitors

Compound: O=c1[nH]c(O)c(/C(=N\O)Nc2ccc(-c3cnn[nH]3)cc2)c(=O)[nH]1 [Formula (Ic), (E)-N-(4-(1H-1,2,3-triazol-5-yl)phenyl)-N′-hydroxy-2,4,6-trioxohexahydro-pyrimidine-5-carboximidamide]
- inhibition of xanthine oxidase compared to allopurinol: particularly potent inhibitors

Compound: Cn1c(O)c(C(=N)Nc2ccc(-c3cnn[nH]3)cc2)c(=O)n(C)c1=O [Formula (If), N-(4-(1H-1,2,3-triazol-5-yl)phenyl)-6-hydroxy-1,3-dimethyl-2,4-dioxo-1,2,3,4-tetrahydropyrimidine-5-carboximidamide]
- inhibition of xanthine oxidase compared to allopurinol: particularly potent inhibitors

Compound: Cn1c(=O)[nH]c(O)c(C(=O)Nc2ccc(-c3cnn[nH]3)cc2)c1=O [Formula (Ig), N-(4-(1H-1,2,3-triazol-4-yl)phenyl)-2,4-dihydroxy-1-methyl-6-oxo-1,6-dihydropyrimidine-5-carboxamide]
- inhibition of xanthine oxidase compared to allopurinol: particularly potent inhibitors

Compound: Cn1c(=O)[nH]c(O)c(C(=N)Nc2ccc(-c3cnn[nH]3)cc2)c1=O [Formula (Ih)]
- inhibition of xanthine oxidase compared to allopurinol: particularly potent inhibitors

Compound: Nc1[nH]c(=O)[nH]c(=O)c1C(=O)Nc1ccc(-c2c[nH]nn2)cc1 [Formula (Ik), N-(4-(1H-1,2,3-triazol-5-yl)phenyl)-6-amino-2,4-dioxo-1,2,3,4-tetrahydropyrimidine-5-carboxamide]
- inhibition of xanthine oxidase compared to allopurinol: particularly potent inhibitors

Compound: O=c1[nH]c(=O)c2c(Nc3ccc(-c4cnn[nH]4)cc3)noc2[nH]1 [Formula (VIa), 3-((4-(1H-1,2,3-triazol-5-yl)phenyl)amino)isoxazolo[5,4-d]pyrimidine-4,6(5H,7H)-dione]
- inhibition of xanthine oxidase compared to allopurinol: particularly potent inhibitors

Compound: O=c1[nH]c(=O)c2c(Nc3ccc(-c4cnn[nH]4)cc3)n[nH]c2[nH]1 [Formula (VIb), 3-((4-(1H-1,2,3-triazol-5-yl)phenyl)amino)-1H-pyrazolo[3,4-d]pyrimidine-4,6(5H,7H)-dione]
- inhibition of xanthine oxidase compared to allopurinol: particularly potent inhibitors
